From patent publication US20090280069A1, “PROGUANIL TO TREAT SKIN/MUCOSAL DISEASES” (Tolmar, Inc., priority 2008, published 2009)
Read-outs that look alike come from different tables or passages of the source.

Assays:
Assay type in all cases: cell-based
[1] = system: Streptococcus equi subsp. equi ATCC 33398; assay: time kill assay, S. equi (Group C)
Experimental: Streptococcus equi (Group C) infections can lead to skin diseases such as erysipelas and cellulitis. A time kill assay was used to test the effects of varying concentrations of proguanil on a culture of Streptococcus equi subsp. equi ATCC 33398. An inoculum of S. equi was prepared and inoculated in vials containing Mueller Hinton II broth and proguanil concentrations of 160, 80, 16, 8, and 1.6 μg/ml. A growth control using phosphate buffered saline A (PBSA) plus Mueller Hinton II broth was used in place of the drug because it has no antimicrobial effect. DGME was the solvent used to dissolve the proguanil, accordingly, 10% DGME was used as the solvent control. These inoculated broth solutions were then allowed to incubate for a period of 72 hours. Samples were taken at 0, 4, 24, 48 and 72 hours and spiral plated so the CFU/ml could be calculated. In the experiments, the effects of proguanil on the S. equi were observed.

[2] = system: Staphylococcus aureus ATCC 6538-P; assay: time kill assay, S. aureus
Experimental: Staphylococcus aureus infections can lead to many skin diseases. Impetigo, furuncles, folliculitis, and carbuncles are all diseases caused by an infection of S. aureus. A microbiological study used a time kill assay with Staphylococcus aureus ATCC 6538-P as an indicator of the antibacterial activity of proguanil. […] A broth only control as well as a solvent 10% DGME control were added to the vials so that the total test volume was 15 ml. One hundred μl of a freshly grown suspension of the Staphylococcus aureus was then added at time zero so that the initial bacterial suspension was between 10^3 and 10^4 CFU/ml. All test and control suspensions were then incubated under aerobic conditions at 35° C. […] These plates were incubated aerobically at 35° C. for 1-3 days. Surviving colonies were then counted and the CFU/ml of test and control suspensions calculated and graphed.

[3] = system: Trichomonas vaginalis ATCC 30001; assay: viability over time assay, T. vaginalis; conditions: for viability at 10 µg/mL / viability at 20 µg/mL / viability at 40 µg/mL / viability at 80 µg/mL / viability at 160 µg/mL / viability at 320 µg/mL: Trichomonas vaginalis, ATCC30001
Experimental: Trichomonas vaginalis infections in females usually involves vaginal discharge and vulvovaginal irritation but is usually asymptomatic in males. A viability over time assay was used to test the effects of varying concentrations of proguanil on a culture of the protozoa Trichomonas vaginalis ATCC 30001. A suspension of T. vaginalis was prepared and inoculated into microtiter plate wells containing supplemented Trichomonas Medium and proguanil concentrations of 320, 160, 80, 40, 20, and 10 μg/ml. A growth control using pyrogen-free water plus supplemented Trichomonas medium was used in place of the drug because it has no antiprotozoal effect. DGME was the solvent used to dissolve the proguanil, accordingly, a small amount of 10% DGME was used as the solvent control in the medium. These inoculated broth solutions were then allowed to incubate for a period of 6 hours. Samples were taken at 1, 3, and 6 hours and observed using a phase contrast microscope. Multiple microscope fields were counted and the number of viable and nonviable T. vaginalis recorded. In the experiment, the effects of proguanil on the T. vaginalis were observed as loss of flagella movement, loss of undulating membrane movement, and loss of cell refractivity.

Which results are given for `CC(C)NC(=N)NC(=N)Nc1ccc(Cl)cc1` [Proguanil, N-(4-Chlorophenyl)-N′-(1-methylethyl)imidodicarbonimidic diamide]?
effect on CFU/ml ([1]; 80 μg/ml, time zero to 72 hours): only a slight increase in CFU/ml; effect on the bacteria ([1]; 160 μg/ml): strong inhibition and killing; CFU/ml ([1]; 160 μg/ml, T=48 and 72 hours): 0 CFU/ml; Relative Sensitivity (Compared to Other Strains Tested) ([1]; Streptococcus equi subspecies equi (Group C) ATCC 33398): Sensitive; Approximate Inhibitory Level ([1]; Streptococcus equi subspecies equi (Group C) ATCC 33398, level at which partial or total inhibition of growth is observed): 80 to 160 µg/mL; effect on CFU/ml ([1]; all other concentrations (16, 8, 1.6 μg/ml)): very similar and near the CFU/ml of the Mueller Hinton II broth control; inhibition of the bacteria ([2]; 160 μg/ml, all time points, similar to the DGME solvent control): slight inhibition; kill of S. aureus ([2]; 320 μg/ml, by the 24 hour time point and later through 72 hours): complete kill; kill of the bacteria ([2]; 1280, 640, and 480 μg/ml, by the 4 hour time point and later through 72 hours): complete kill; Relative Sensitivity (Compared to Other Strains Tested) ([2]; Staphylococcus aureus ATCC-6538P): Moderately; Approximate Inhibitory Level ([2]; Staphylococcus aureus ATCC-6538P, level at which partial or total inhibition of growth is observed): 320 µg/mL; Nonviable ([3]; 10 ug/ml, 1 Hour): 24; Viable ([3]; 10 ug/ml, 1 Hour): 26; Nonviable ([3]; 10 ug/ml, 3 Hour): 25; Viable ([3]; 10 ug/ml, 3 Hour): 25; Nonviable ([3]; 10 ug/ml, 6 Hour): 25; Viable ([3]; 10 ug/ml, 6 Hour): 25; Nonviable ([3]; 20 ug/ml, 1 Hour): 19; Viable ([3]; 20 ug/ml, 1 Hour): 31; Nonviable ([3]; 20 ug/ml, 3 Hour): 28; Viable ([3]; 20 ug/ml, 3 Hour): 22; Nonviable ([3]; 20 ug/ml, 6 Hour): 29; Viable ([3]; 20 ug/ml, 6 Hour): 21; Nonviable ([3]; 40 ug/ml, 1 Hour): 22; Viable ([3]; 40 ug/ml, 1 Hour): 28; Nonviable ([3]; 40 ug/ml, 3 Hour): 25; Viable ([3]; 40 ug/ml, 3 Hour): 25; Nonviable ([3]; 40 ug/ml, 6 Hour): 27; Viable ([3]; 40 ug/ml, 6 Hour): 26; Nonviable ([3]; 80 ug/ml, 1 Hour): 28; Viable ([3]; 80 ug/ml, 1 Hour): 22; Nonviable ([3]; 80 ug/ml, 3 Hour): 32; Viable ([3]; 80 ug/ml, 3 Hour): 18; Nonviable ([3]; 80 ug/ml, 6 Hour): 34; Viable ([3]; 80 ug/ml, 6 Hour): 8; effect on T. vaginalis viability ([3]; 80 μg/ml, at 3 and 6 hours): next greatest effect; Nonviable ([3]; 160 ug/ml, 1 Hour): 30; Viable ([3]; 160 ug/ml, 1 Hour): 20; Nonviable ([3]; 160 ug/ml, 3 Hour): 27; Viable ([3]; 160 ug/ml, 3 Hour): 24; Nonviable ([3]; 160 ug/ml, 6 Hour): 43; Viable ([3]; 160 ug/ml, 6 Hour): 9; effect on T. vaginalis ([3]; 160 μg/ml, at 6 hours): strong inhibition and killing effect; Nonviable ([3]; 320 ug/ml, 1 Hour): 32; Viable ([3]; 320 ug/ml, 1 Hour): 18; Nonviable ([3]; 320 ug/ml, 3 Hour): 40; Viable ([3]; 320 ug/ml, 3 Hour): 13; Nonviable ([3]; 320 ug/ml, 6 Hour): 14; Viable ([3]; 320 ug/ml, 6 Hour): 0; effect on T. vaginalis ([3]; 320 μg/ml, at 1 hour): early inhibition and killing effect; surviving T. vaginalis ([3]; 320 μg/ml, at 6 hours): no surviving T. vaginalis could be observed; Relative Sensitivity (Compared to Other Strains Tested) ([3]; Trichomonas vaginalis (parasitic protozoan) ATCC 30001): Very Sensitive; Approximate Inhibitory Level ([3]; Trichomonas vaginalis (parasitic protozoan) ATCC 30001, level at which partial or total inhibition of growth is observed): 80 µg/mL; viability at 10 µg/mL ([3]; 10 ug/ml, 1 Hour, read-out: PerCent Viable): 52%; viability at 10 µg/mL ([3]; 10 ug/ml, 1 Hour, read-out: Percent Viable of Growth Control): 118%; viability at 10 µg/mL ([3]; 10 ug/ml, 3 Hour, read-out: PerCent Viable): 50%; viability at 10 µg/mL ([3]; 10 ug/ml, 3 Hour, read-out: Percent Viable of Growth Control): 96.2%; viability at 10 µg/mL ([3]; 10 ug/ml, 6 Hour, read-out: PerCent Viable): 50%; viability at 10 µg/mL ([3]; 10 ug/ml, 6 Hour, read-out: Percent Viable of Growth Control): 86.2%; viability at 20 µg/mL ([3]; 20 ug/ml, 1 Hour, read-out: PerCent Viable): 62%; viability at 20 µg/mL ([3]; 20 ug/ml, 1 Hour, read-out: Percent Viable of Growth Control): 140%; viability at 20 µg/mL ([3]; 20 ug/ml, 3 Hour, read-out: PerCent Viable): 44%; viability at 20 µg/mL ([3]; 20 ug/ml, 3 Hour, read-out: Percent Viable of Growth Control): 84.6%; viability at 20 µg/mL ([3]; 20 ug/ml, 6 Hour, read-out: PerCent Viable): 42%; viability at 20 µg/mL ([3]; 20 ug/ml, 6 Hour, read-out: Percent Viable of Growth Control): 72.4%; viability at 40 µg/mL ([3]; 40 ug/ml, 1 Hour, read-out: PerCent Viable): 56%; viability at 40 µg/mL ([3]; 40 ug/ml, 1 Hour, read-out: Percent Viable of Growth Control): 126%; viability at 40 µg/mL ([3]; 40 ug/ml, 3 Hour, read-out: PerCent Viable): 50%; viability at 40 µg/mL ([3]; 40 ug/ml, 3 Hour, read-out: Percent Viable of Growth Control): 96.2%; viability at 40 µg/mL ([3]; 40 ug/ml, 6 Hour, read-out: PerCent Viable): 49.1%; viability at 40 µg/mL ([3]; 40 ug/ml, 6 Hour, read-out: Percent Viable of Growth Control): 84.6%; viability at 80 µg/mL ([3]; 80 ug/ml, 1 Hour, read-out: PerCent Viable): 44%; viability at 80 µg/mL ([3]; 80 ug/ml, 1 Hour, read-out: Percent Viable of Growth Control): 99.4%; viability at 80 µg/mL ([3]; 80 ug/ml, 3 Hour, read-out: PerCent Viable): 36%; viability at 80 µg/mL ([3]; 80 ug/ml, 3 Hour, read-out: Percent Viable of Growth Control): 69.2%; viability at 80 µg/mL ([3]; 80 ug/ml, 6 Hour, read-out: PerCent Viable): 19%; viability at 80 µg/mL ([3]; 80 ug/ml, 6 Hour, read-out: Percent Viable of Growth Control): 32.8%; viability at 160 µg/mL ([3]; 160 ug/ml, 1 Hour, read-out: PerCent Viable): 40%; viability at 160 µg/mL ([3]; 160 ug/ml, 1 Hour, read-out: Percent Viable of Growth Control): 90.4%; viability at 160 µg/mL ([3]; 160 ug/ml, 3 Hour, read-out: PerCent Viable): 47.1%; viability at 160 µg/mL ([3]; 160 ug/ml, 3 Hour, read-out: Percent Viable of Growth Control): 90.5%; viability at 160 µg/mL ([3]; 160 ug/ml, 6 Hour, read-out: PerCent Viable): 17.3%; viability at 160 µg/mL ([3]; 160 ug/ml, 6 Hour, read-out: Percent Viable of Growth Control): 29.8%; viability at 320 µg/mL ([3]; 320 ug/ml, 1 Hour, read-out: PerCent Viable): 36%; viability at 320 µg/mL ([3]; 320 ug/ml, 1 Hour, read-out: Percent Viable of Growth Control): 81.3%; viability at 320 µg/mL ([3]; 320 ug/ml, 3 Hour, read-out: PerCent Viable): 24.5%; viability at 320 µg/mL ([3]; 320 ug/ml, 3 Hour, read-out: Percent Viable of Growth Control): 47.2%; viability at 320 µg/mL ([3]; 320 ug/ml, 6 Hour, read-out: PerCent Viable): 0%; viability at 320 µg/mL ([3]; 320 ug/ml, 6 Hour, read-out: Percent Viable of Growth Control): 0%
